Reference: patent US7537787B2, “Method for modulating glutamate and/or aspartate release in a central nervous system locus” (Indiana University Research and Technology Corporation, priority 1996, dated 2009)

Key:
[1] = tested on: rat hippocampal slices (glutamate release); test: TRH inhibition of [K+]-stimulated glutamate release from superfused hippocampal slices in vitro; assay type: cell-based; details: for glutamate at 10 min. post stimulation: control 4.37±1.29; for peak 50 mM [K+]-stimulated glutamate release: control 48.05±8.59
Source text: TRH INHIBITION OF [K^+]-STIMULATED GLUTAMATE RELEASE FROM HIPPOCAMPAL SLICES IN VITRO. Enhanced excitatory amino acid release is suspected in pathways associated with seizures and excitotoxicity. In this regard, superfused hippocampal slices were used to investigate the hypothesis that TRH could inhibit glutamate release in vitro. Rat hippocampi were removed and sliced transversely (500 μm) under low magnification. Slices were weighed, washed in cold saline, transferred to individual tissue chambers floated in a 37° C. water bath and were equilibrated in oxygenated (95% O2/5% CO2), (37° C.) Kreb's buffer (KRB) for 120 min. (0.5 ml/min.). Slice chambers were then superfused 10 min. with KRB (control), or KRB containing 10 μM, 1 μM, or 0.1 μM TRH respectively, prior to 5 min. stimulation with modified KRB (50 mM [K^+]±TRH). Fractions (1 min.) were collected during the 5 min. stimulation and for an additional 10 min. (0.5 ml/min.) thereafter, and analyzed for glutamate by HPLC.

[2] = tested on: Gαq/11 G proteins (TRH receptor); details: sustained TRH exposure (16 hr.) to its receptor; cited from earlier work

NC(=O)[C@@H]1CCCN1C(=O)[C@H](Cc1cnc[nH]1)NC(=O)[C@@H]1CCC(=O)N1 [TRH, Thyrotropin-releasing hormone]
glutamate at 10 min. post stimulation ([1]; 0.1 μM TRH): 1.54±0.43 μM/g/fraction
peak 50 mM [K+]-stimulated glutamate release ([1]; 0.1 μM TRH): 1.38±0.28 μM/g/fraction
glutamate at 10 min. post stimulation ([1]; 1 μM TRH): 1.11±0.26 μM/g/fraction
peak 50 mM [K+]-stimulated glutamate release ([1]; 1 μM TRH): 1.54±0.33 μM/g/fraction
glutamate at 10 min. post stimulation ([1]; 10 μM TRH): 1.35±0.48 μM/g/fraction
peak 50 mM [K+]-stimulated glutamate release ([1]; 10 μM TRH): 2.35±0.50 μM/g/fraction
glutamate release by 50 mM [K+]-stimulation given 15 min. later ([1]; 5 min. perfusion with KRB+10 μM TRH, p<0.05, FIG. 6): significantly (p<0.05) blocked
reduction of Gαq/11 G proteins [2]: 20-70%
